Results published in US20250197864A1, “LNCRNA TRANSCRIPTS IN MELANOMAGENESIS” (The Regents of the University of California, priority 2021, published 2025).

How the values were obtained:
[1] = tested on: AV5 primary melanoma cell line; assay: Cell viability assay (ATP quantitation); assay type: cell-based, human; conditions: 50 nM, 5 days (120 hrs), vs non-targeting control
Method in brief: (§1)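 Seeded at 0.7-2×10^3 cells/well, cells were treated one day later with oligonucleotides (typically 50 nM, Lipofectamine 3000) and/or MEK inhibitor. Total luminescence was read 3 days (synergy experiments) or 5 days (ASO alone) after transfection.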

D04 melanoma cell line = assay: Cell viability assay (ATP quantitation); assay type: cell-based, human; conditions: 50 nM, 5 days (120 hrs), vs non-targeting control
Method in brief: as §1

[2] = tested on: Hs852.T primary melanoma cell line; assay: Cell viability assay (ATP quantitation); assay type: cell-based, human; conditions: 50 nM, 5 days (120 hrs), vs non-targeting control
Method in brief: as §1

MM415 melanoma cell line = assay: Cell viability assay (ATP quantitation); assay type: cell-based, human; conditions: 50 nM, 5 days (120 hrs), vs non-targeting control
Method in brief: as §1

[3] = tested on: Sk-Mel-2 melanoma cell line; assay: Cell viability assay (ATP quantitation); assay type: cell-based, human; conditions: 50 nM, 5 days (120 hrs), vs non-targeting control
Method in brief: as §1

[4] = tested on: Sk-Mel-28 melanoma cell line; assay: Cell viability assay (ATP quantitation); assay type: cell-based, human; conditions: 50 nM, 5 days (120 hrs), vs non-targeting control
Method in brief: as §1

VMM39 melanoma cell line = assay: Cell viability assay (ATP quantitation); assay type: cell-based, human; conditions: 50 nM, 5 days (120 hrs), vs non-targeting control
Method in brief: as §1

[5] = tested on: WM1366 melanoma cell line; assay: Cell viability assay (ATP quantitation); assay type: cell-based, human; conditions: 50 nM, 5 days (120 hrs), vs non-targeting control
Method in brief: as §1

[6] = tested on: WM3211 melanoma cell line; assay: Cell viability assay (ATP quantitation); assay type: cell-based, human; conditions: 50 nM, 5 days (120 hrs), vs non-targeting control
Method in brief: as §1

[7] = tested on: WM3629 melanoma cell line; assay: Cell viability assay (ATP quantitation); assay type: cell-based, human; conditions: 50 nM, 5 days (120 hrs), vs non-targeting control
Method in brief: as §1

[8] = tested on: A-172 Glioblastoma cell line; assay: Cell viability assay (ATP quantitation); assay type: cell-based; conditions: 50 nM, 5 days, vs non-targeting control
Method in brief: as §1

AV1 melanoma cell line = assay: Cell viability assay (ATP quantitation); assay type: cell-based; conditions: 50 nM, 5 days, vs non-targeting control
Method in brief: as §1

AV4 melanoma cell line = assay: Cell viability assay (ATP quantitation); assay type: cell-based; conditions: 50 nM, 5 days, vs non-targeting control
Method in brief: as §1

[9] = tested on: H2228 lung cancer cell line; assay: Cell viability assay (ATP quantitation); assay type: cell-based; conditions: 50 nM, 5 days, vs non-targeting control
Method in brief: as §1

[10] = tested on: H82 lung cancer cell line; assay: Cell viability assay (ATP quantitation); assay type: cell-based; conditions: 50 nM, 5 days, vs non-targeting control
Method in brief: as §1

[11] = tested on: H929 multiple myeloma cell line; assay: Cell viability assay (ATP quantitation); assay type: cell-based; conditions: 50 nM, 5 days, vs non-targeting control
Method in brief: as §1

[12] = tested on: HCT116 colon carcinoma cell line; assay: Cell viability assay (ATP quantitation); assay type: cell-based; conditions: 50 nM, 5 days, vs non-targeting control
Method in brief: as §1

[13] = tested on: L363 multiple myeloma cell line; assay: Cell viability assay (ATP quantitation); assay type: cell-based; conditions: 50 nM, 5 days, vs non-targeting control
Method in brief: as §1

[14] = tested on: MaMel30 melanoma cell line; assay: Cell viability assay (ATP quantitation); assay type: cell-based; conditions: 50 nM, 5 days, vs non-targeting control
Method in brief: as §1

[15] = tested on: SW1271 lung cancer cell line; assay: Cell viability assay (ATP quantitation); assay type: cell-based; conditions: 50 nM, 5 days, vs non-targeting control
Method in brief: as §1

[16] = tested on: SW480 colon carcinoma cell line; assay: Cell viability assay (ATP quantitation); assay type: cell-based; conditions: 50 nM, 5 days, vs non-targeting control
Method in brief: as §1

[17] = tested on: Sk-Mel-5 melanoma cell line; assay: Cell viability assay (ATP quantitation); assay type: cell-based; conditions: 50 nM, 5 days, vs non-targeting control
Method in brief: as §1

[18] = tested on: Sk-N-AS Neuroblastoma cell line; assay: Cell viability assay (ATP quantitation); assay type: cell-based; conditions: 50 nM, 5 days, vs non-targeting control
Method in brief: as §1

[19] = tested on: T98G Glioblastoma cell line; assay: Cell viability assay (ATP quantitation); assay type: cell-based; conditions: 50 nM, 5 days, vs non-targeting control
Method in brief: as §1

[20] = tested on: U138-MG Glioblastoma cell line; assay: Cell viability assay (ATP quantitation); assay type: cell-based; conditions: 50 nM, 5 days, vs non-targeting control
Method in brief: as §1

[21] = tested on: U20S osteosarcoma cell line; assay: Cell viability assay (ATP quantitation); assay type: cell-based; conditions: 50 nM, 5 days, vs non-targeting control
Method in brief: as §1

[22] = tested on: U87-MG Glioblastoma cell line; assay: Cell viability assay (ATP quantitation); assay type: cell-based; conditions: 50 nM, 5 days, vs non-targeting control
Method in brief: as §1

[23] = tested on: WM3060 melanoma cell line; assay: Cell viability assay (ATP quantitation); assay type: cell-based; conditions: 50 nM, 5 days, vs non-targeting control
Method in brief: as §1

[24] = tested on: XG-1 multiple myeloma cell line; assay: Cell viability assay (ATP quantitation); assay type: cell-based; conditions: 50 nM, 5 days, vs non-targeting control
Method in brief: as §1

[25] = tested on: D04RM trametinib resistant melanoma cell line; assay: Cell viability assay (ATP quantitation); assay type: cell-based; conditions: 50 nM, 5 days, vs non-targeting control
Text: (§2) Human melanoma cell line VMM39 was purchased from American Type Culture Collection (ATCC). Human melanoma cell lines D04, MM415, WM1366, WM3629, WM3211, Sk-Mel-2 and Sk-Mel-28 were a generous gift from Boris Bastian at the University of California, San Francisco. Primary human melanoma cell line Hs852.T was purchased from the Cell Culture Core Facility (CCCF) at the University of California, San Francisco. Primary human melanoma cell line AV5 was obtained from metastasis of a melanoma patient. All experimental protocols were approved by UCSF Human Research Protection Program Institutional Review Board (IRB #12-0948), all patients signed informed consent, and methods were carried out in accordance with relevant guidelines and regulations. Resistant cell lines DO4RM, MM415RM, Sk-Mel-2RM and WM3629RM were established as previously described. [Sanlorenzo, M. et al., The lincRNA MIRAT binds to IQGAPI and modulates the MAPK pathway in NRAS mutant melanoma. Sci Rep 8, 10902 (2018).] Primary human melanocytic cell lines (PHM) from infant foreskin of five healthy donors were available in our cell repository and pooled. Melanoma cell lines were maintained in RPMI 1640 media supplemented with 10% (vol/vol) heat inactivated fetal bovine serum. Melanocytes were maintained in M254 medium with HMGS supplements (1× final solution). All cell lines were incubated at 37° C. under 5% CO2.
(§3) EsiRNA, siRNA and ASO GapmeRs were transfected in a final concentration of 50 nM unless mentioned otherwise and the transfection reagent Lipofectamine 3000 (2 ul/ml) was added according to the manufacturer's instructions.
(§4) Dependent on cell doubling time, 0.7-2×10^^3 cells were seeded in 96 well plates. 1 day after seeding cells were incubated in media with oligonucleotide concentration and/or MEKi and transfection reagent. 3 (synergy experiments) or 5 (solely ASO) days after transfection Total luminescence was measured on the SynergyHT plate reader (BioTek) using Gen5 software.

[26] = tested on: MM415RM trametinib resistant melanoma cell line; assay: Cell viability assay (ATP quantitation); assay type: cell-based; conditions: 50 nM, 5 days, vs non-targeting control
Text: as §2, §3, §4

[27] = tested on: Sk-Mel-2-RM trametinib resistant melanoma cell line; assay: Cell viability assay (ATP quantitation); assay type: cell-based; conditions: 50 nM, 5 days, vs non-targeting control
Text: as §2, §3, §4

[28] = tested on: WM3629RM trametinib resistant melanoma cell line; assay: Cell viability assay (ATP quantitation); assay type: cell-based; conditions: 50 nM, 5 days, vs non-targeting control
Text: as §2, §3, §4

[29] = tested on: hepatocellular carcinoma cell line HepG2; assay: Cell viability assay (ATP quantitation); assay type: cell-based; conditions: 50 nM, 120 hrs, Lipofectamine3000 2 ul/ml, vs non-targeting control ASO
Procedure: as §3, §4
(§5) Cell viability was compared to treatment with non-targeting control ASO-treatment. Lipofectamine3000 concentration was 2 ul/ml.

[30] = tested on: sarcoma cell line SK-LMS-1; assay: Cell viability assay (ATP quantitation); assay type: cell-based; conditions: SK-LMS-1 sarcoma; 50 nM, 120 hrs; Lipofectamine3000 2 ul/ml; vs non-targeting control ASO
Procedure: as §3, §4, §5

D04 xenograft tumors [31] = assay: Intravenous in vivo treatment, D04 xenograft; conditions: D04 tumors in mice; 700 μg twice a week, intravenous tail vein, no transfection reagent; vs non-targeting control ASO
Procedure: (§6) In 4- to 6-week-old NOD.Cg-Prkdcscid Il2rgtm1Wjl/SzJ mice, D04 cells in 150 1 of PBS and 50 1 of Matrigel were subcutaneously injected on the right and left posterior dorsal flank of 4- to 6-week-old homozygous nude Foxn1nu/Foxn1nu mice (Stock.no 007850). Mice were obtained from JAX®. Tumor size was measured using a digital caliper and the formula 0.5×(length×(width^2)) was used to calculate tumor volume. Mice were treated twice a week with 700 μg of (SEQ ID NO: 16) or non-targeting control-ASO. No transfection reagent was co-applied. ASO injections were applied intravenously as tail vein injections. Mice were weighted twice a week and observed for signs of distress or disorder.

D04 xenograft tumors [32] = assay: Intratumoral in vivo treatment, D04 xenograft; conditions: D04 tumors in mice; 400 μg twice a week into the tumor mass, no transfection reagent; vs non-targeting control ASO
Procedure: as §6, with “Il2rgtm1Wjl/SzJ mice D04,” for “Il2rgtm1Wjl/SzJ mice, D04”, “and 501” for “and 50 1”, “right” for “right and left”, “with 400” for “with 700”, “applied into the tumor mass.” for “applied intravenously as tail vein injections.”

ACATGGATTGGTAGTG (QIAGEN GapmeR, modification pattern not given here) [SEQ ID NO: 17, Antisense oligonucleotide targeting RP11-7011.3-001, 002 and 003]
cell viability decrease [1]: significant cell viability decrease | cell viability decrease (D04 melanoma cell line): significant cell viability decrease | cell viability decrease [2]: significant cell viability decrease | cell viability decrease (MM415 melanoma cell line): significant cell viability decrease | cell viability decrease [3]: significant cell viability decrease | cell viability decrease [4]: significant cell viability decrease | cell viability decrease (VMM39 melanoma cell line): significant cell viability decrease | cell viability decrease [5]: significant cell viability decrease | cell viability decrease [6]: significant cell viability decrease | cell viability decrease [7]: significant cell viability decrease | cell viability decrease [8]: significant cell viability decrease | cell viability decrease (AV1 melanoma cell line): significant cell viability decrease | cell viability decrease (AV4 melanoma cell line): significant cell viability decrease | cell viability decrease [9]: significant cell viability decrease | cell viability decrease [10]: significant cell viability decrease | cell viability decrease [11]: significant cell viability decrease | cell viability decrease [12]: significant cell viability decrease | cell viability decrease [13]: significant cell viability decrease | cell viability decrease [14]: significant cell viability decrease | cell viability decrease [15]: significant cell viability decrease | cell viability decrease [16]: significant cell viability decrease | cell viability decrease [17]: significant cell viability decrease | cell viability decrease [18]: significant cell viability decrease | cell viability decrease [19]: significant cell viability decrease | cell viability decrease [20]: significant cell viability decrease | cell viability decrease [21]: significant cell viability decrease | cell viability decrease [22]: significant cell viability decrease | cell viability decrease [23]: significant cell viability decrease | cell viability decrease [24]: significant cell viability decrease | cell viability decrease [25]: significant cell viability decrease | cell viability decrease [26]: significant cell viability decrease | cell viability decrease [27]: significant cell viability decrease | cell viability decrease [28]: significant cell viability decrease

TGCGCGGCGGAAAGAA (QIAGEN GapmeR, modification pattern not given here) [SEQ ID NO: 16, ASO targeting AC004540.4 (TRASH), intronic region of Isoform 2; used in vivo]
cell viability decrease [1]: significant cell viability decrease | cell viability decrease (D04 melanoma cell line): significant cell viability decrease | cell viability decrease [2]: significant cell viability decrease | cell viability decrease (MM415 melanoma cell line): significant cell viability decrease | cell viability decrease [3]: significant cell viability decrease | cell viability decrease [4]: significant cell viability decrease | cell viability decrease (VMM39 melanoma cell line): significant cell viability decrease | cell viability decrease [5]: significant cell viability decrease | cell viability decrease [6]: significant cell viability decrease | cell viability decrease [7]: significant cell viability decrease | cell viability decrease [29]: significant cell viability decrease | cell viability decrease [30]: significant cell viability decrease | tumor growth (D04 xenograft tumors [31]): significantly reduced tumor growth | tumor growth (D04 xenograft tumors [32]): significantly reduced tumor growth
